{"source": "patent US20040014024A1", "about": "“Screening assay for antagonists of FGFR-mediated malignant cell transformation and tumor formation” (priority 1999, published 2004)", "system": "RCJ cells", "test": "Tumor formation in nude mice injected with RCJ cells, doxycycline in drinking water", "format": "in vivo", "conditions": "doxycycline 25 μg/ml in drinking water, up to 60 days", "protocol": "6-8-Week old nude mice (BalbC/Nu) were injected subcutaneously with equivalent number of parental RCJ or L8 cells or FGFR3 expressing cell lines and were followed for tumor formation for up to 60 days after injections. Inhibition of FGFR expression in vivo was done by adding 25 μg/ml doxycycline into the drinking water of mice which had previously received the RCJ cell clones by injection. Nude mice were injected subcutaneously with equivalent numbers of parental RCJ cells (FIGS. 9 A-C, C2, squares) or wild type or mutant FGFR3 expressing RCJ cell lines (W11, circles in FIG. 9A, M15, triangles in FIG. 9A, W2, triangles in FIG. 9B, M16, circles in FIG. 9B) and tumor surface areas were evaluated for up to 60 days after injection (ordinates). […] Triangles, C2 (control) clone plus doxycycline, circles, W11 clone, filled squares, W11 clone plus doxycycline Doxycycline was used in animals because the former is a potent high affinity derivative of tetracycline. […] The inhibition of tumor formation of RCJ cells was highly correlated with the expression levels of FGFR3. In order to determine whether inhibition of tumor formation reflects the expression level of FGFR3, we have performed an assay where we tried to suppress the expression of FGFR3 in vivo by the addition of doxycycline to the drinking water of injected mice.", "data": [{"smiles": "C[C@H]1c2cccc(O)c2C(=O)C2=C(O)[C@]3(O)C(=O)C(C(N)=O)=C(O)[C@@H](N(C)C)[C@@H]3[C@@H](O)[C@@H]21", "note": "[doxycycline]", "values": [{"measurement": "effect on tumor formation, mice injected with the parental RCJ line (C2)", "result": "no significant effect"}]}]}
